PubChem BioAssay AID248 (DTP/NCI, 2004)
Inconclusive results and toxic doses are left out. Rule as the data show it: active = T/C of 150% or more; inactive = T/C below 125%.

System: L1210 leukemia ip in BDF1 mice, survival T/C
Test: NCI In Vivo Anticancer Drug Screen. Data for tumor model L1210 Leukemia (intraperitoneal) in B6D2F1 (BDF1) mice
Conditions: endpoint: mean survival time, higher = longer survival
Procedure, shortened: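 Transplanted-tumor mice were given test agent; controls received vehicle only. Survival readings from the two groups were divided (treated over control).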

[1] = dose: 100.0 mg/kg/injection, schedule: Q01DX001 (ip), vehicle: saline
[2] = dose: 200.0 mg/kg/injection, schedule: Q01DX001 (ip), vehicle: saline
[3] = dose: 400.0 mg/kg/injection, schedule: Q01DX001 (ip), vehicle: saline
[4] = dose: 100.0 mg/kg/injection, schedule: Q04DX003 (ip), vehicle: Klucel (hydroxypropylcellulose) (HPC)
[5] = dose: 200.0 mg/kg/injection, schedule: Q04DX003 (ip), vehicle: Klucel (hydroxypropylcellulose) (HPC)
[6] = dose: 400.0 mg/kg/injection, schedule: Q04DX003 (ip), vehicle: Klucel (hydroxypropylcellulose) (HPC)
[7] = dose: 100.0 mg/kg/injection, schedule: Q01DX009 (ip), vehicle: saline
[8] = dose: 100.0 mg/kg/injection, schedule: Q04DX003 (ip), vehicle: saline
[9] = dose: 200.0 mg/kg/injection, schedule: Q01DX009 (ip), vehicle: saline
[10] = dose: 200.0 mg/kg/injection, schedule: Q04DX003 (ip), vehicle: saline
[11] = dose: 400.0 mg/kg/injection, schedule: Q04DX003 (ip), vehicle: saline
[12] = dose: 200.0 mg/kg/injection, schedule: Q04DX002 (ip), vehicle: Klucel (hydroxypropylcellulose) (HPC)
[13] = dose: 400.0 mg/kg/injection, schedule: Q04DX002 (ip), vehicle: Klucel (hydroxypropylcellulose) (HPC)
[14] = dose: 100.0 mg/kg/injection, schedule: Q04DX002 (ip), vehicle: saline
[15] = dose: 200.0 mg/kg/injection, schedule: Q04DX002 (ip), vehicle: saline
[16] = dose: 100.0 mg/kg/injection, schedule: Q01DX009 (ip), vehicle: Klucel (hydroxypropylcellulose) (HPC)
[17] = dose: 200.0 mg/kg/injection, schedule: Q01DX009 (ip), vehicle: Klucel (hydroxypropylcellulose) (HPC)
[18] = dose: 400.0 mg/kg/injection, schedule: Q01DX009 (ip), vehicle: Klucel (hydroxypropylcellulose) (HPC)

Measured: T/C

COc1cc(C=Nc2cc(Cl)c(OC)c(Cl)c2)ccc1N(CCCl)CCCl
inactive: dose: 26.0 mg/kg/injection, schedule: Q01DX001 (ip), vehicle: carboxymethylcellulose (CMC) 121 % of control | dose: 26.0 mg/kg/injection, schedule: Q01DX009 (ip), vehicle: carboxymethylcellulose (CMC) 120 % of control | dose: 29.0 mg/kg/injection, schedule: Q01DX001 (ip), vehicle: carboxymethylcellulose (CMC) 118 % of control | dose: 40.0 mg/kg/injection, schedule: Q01DX009 (ip), vehicle: carboxymethylcellulose (CMC) 94 % of control | dose: 44.0 mg/kg/injection, schedule: Q01DX001 (ip), vehicle: carboxymethylcellulose (CMC) 114 % of control | dose: 150.0 mg/kg/injection, schedule: Q01DX001 (ip), vehicle: carboxymethylcellulose (CMC) 121 % of control | dose: 225.0 mg/kg/injection, schedule: Q01DX001 (ip), vehicle: carboxymethylcellulose (CMC) 122 % of control | dose: 300.0 mg/kg/injection, schedule: Q01DX001 (ip), vehicle: carboxymethylcellulose (CMC) 122 % of control

O=c1[nH]c(Cc2ccccc2)c(Br)c(=O)[nH]1
inactive: dose: 50.0 mg/kg/injection, schedule: Q01DX001 (ip), vehicle: saline 102 % of control | [1] 100 % of control | dose: 100.0 mg/kg/injection, schedule: Q01DX009 (ip), vehicle: saline with Tween-80 104 % of control | dose: 100.0 mg/kg/injection, schedule: Q## X009 (ip), vehicle: saline with Tween-80 104 % of control | [2] 100 % of control | dose: 200.0 mg/kg/injection, schedule: Q01DX009 (ip), vehicle: saline with Tween-80 92 % of control | dose: 200.0 mg/kg/injection, schedule: Q## X009 (ip), vehicle: saline with Tween-80 92 % of control | [3] 94 % of control

Cc1ccc(S(=O)(=O)NNC(=O)C2(C)CC2(C)C(=O)O)cc1 (configuration not stated)
inactive: dose: 100.0 mg/kg/injection, schedule: Q01DX001 (ip), vehicle: Klucel (hydroxypropylcellulose) (HPC) 100 % of control | [4] 91 % of control | dose: 100.0 mg/kg/injection, schedule: Q04DX003 (ip), vehicle: saline with Tween-80 96 % of control | dose: 200.0 mg/kg/injection, schedule: Q01DX001 (ip), vehicle: Klucel (hydroxypropylcellulose) (HPC) 93 % of control | [5] 89 % of control | dose: 200.0 mg/kg/injection, schedule: Q04DX003 (ip), vehicle: saline with Tween-80 93 % of control | dose: 400.0 mg/kg/injection, schedule: Q01DX001 (ip), vehicle: Klucel (hydroxypropylcellulose) (HPC) 101 % of control | [6] 100 % of control | dose: 400.0 mg/kg/injection, schedule: Q04DX003 (ip), vehicle: saline with Tween-80 86 % of control

CCN(CC)C(=O)Nc1ccc(O)c(C(=O)O)c1
inactive: [1] 98 % of control | [2] 95 % of control | [3] 96 % of control

Cc1cc(N(CCCl)CCCl)ccc1C=Nc1cc(Br)cc(Br)c1
inactive: dose: 100.0 mg/kg/injection, schedule: Q01DX001 (ip), vehicle: carboxymethylcellulose (CMC) 101 % of control | dose: 200.0 mg/kg/injection, schedule: Q01DX001 (ip), vehicle: carboxymethylcellulose (CMC) 110 % of control | dose: 400.0 mg/kg/injection, schedule: Q01DX001 (ip), vehicle: carboxymethylcellulose (CMC) 108 % of control

O=C(O)C(c1ccccc1)N1C(=O)c2ccccc2C1=O (configuration not stated)
inactive: dose: 50.0 mg/kg/injection, schedule: Q04DX003 (ip), vehicle: Klucel (hydroxypropylcellulose) (HPC) 104 % of control | [4] 109 % of control | [5] 104 % of control

NC(=O)CNCCS(=O)(=O)O
inactive: [7] 101 % of control | [8] 97 % of control | [9] 107 % of control | [10] 97 % of control | dose: 400.0 mg/kg/injection, schedule: Q01DX009 (ip), vehicle: saline 101 % of control | [11] 100 % of control

CC(C)(C)OC(=O)NOC(=O)c1ccc([N+](=O)[O-])cc1
inactive: dose: 100.0 mg/kg/injection, schedule: Q04DX002 (ip), vehicle: Klucel (hydroxypropylcellulose) (HPC) 104 % of control | [12] 96 % of control | [13] 107 % of control

Nc1nc(N)c(CCCOc2ccccc2)c(N)n1
inactive: [14] 105 % of control | [15] 105 % of control

O=[N+]([O-])c1cc(Cl)c(Cl)cc1NS(=O)(=O)c1ccccc1
inactive: dose: 25.0 mg/kg/injection, schedule: Q01DX Z (ip), vehicle: carboxymethylcellulose (CMC) 101 % of control | dose: 50.0 mg/kg/injection, schedule: Q01DX Z (ip), vehicle: carboxymethylcellulose (CMC) 98 % of control | dose: 100.0 mg/kg/injection, schedule: Q01DX Z (ip), vehicle: carboxymethylcellulose (CMC) 101 % of control | dose: 200.0 mg/kg/injection, schedule: Q01DX Z (ip), vehicle: carboxymethylcellulose (CMC) 96 % of control | dose: 275.0 mg/kg/injection, schedule: Q01DX015 (ip), vehicle: carboxymethylcellulose (CMC) 90 % of control | dose: 350.0 mg/kg/injection, schedule: Q01DX015 (ip), vehicle: carboxymethylcellulose (CMC) 98 % of control | dose: 425.0 mg/kg/injection, schedule: Q01DX015 (ip), vehicle: carboxymethylcellulose (CMC) 111 % of control | dose: 700.0 mg/kg/injection, schedule: Q01DX015 (ip), vehicle: carboxymethylcellulose (CMC) 86 % of control

COc1ccc(C2(C#N)CCCCC2)cc1
inactive: [16] 109 % of control | [4] 97 % of control | [17] 98 % of control | [5] 100 % of control | [18] 94 % of control | [6] 101 % of control

Cc1cccc2c(=O)c(C(=O)O)cn(C)c12
inactive: dose: 50.0 mg/kg/injection, schedule: Q04DX002 (ip), vehicle: saline 107 % of control | [14] 107 % of control | [15] 107 % of control

O=c1[nH]c(=O)n(C2CCCCO2)cc1F (configuration not stated)
inactive: dose: 2.5 mg/kg/injection, schedule: Q01DX009 (ip), vehicle: saline 100 % of control | dose: 5.0 mg/kg/injection, schedule: Q01DX009 (ip), vehicle: saline 104 % of control | dose: 10.0 mg/kg/injection, schedule: Q01DX009 (ip), vehicle: saline 94 % of control | dose: 20.0 mg/kg/injection, schedule: Q01DX009 (ip), vehicle: saline 96 % of control | dose: 40.0 mg/kg/injection, schedule: Q01DX009 (ip), vehicle: saline 100 % of control | dose: 80.0 mg/kg/injection, schedule: Q01DX009 (ip), vehicle: saline 96 % of control | dose: 160.0 mg/kg/injection, schedule: Q01DX009 (ip), vehicle: saline 98 % of control

c1ccc(Cc2ccccn2)nc1
inactive: dose: 100.0 mg/kg/injection, schedule: Q04DX003 (ip), vehicle: saline sonified 110 % of control | dose: 200.0 mg/kg/injection, schedule: Q04DX003 (ip), vehicle: saline sonified 104 % of control | dose: 400.0 mg/kg/injection, schedule: Q04DX003 (ip), vehicle: saline sonified 104 % of control

O=C(Cc1ccccc1)Nc1ccc(Nc2ccccc2)cc1
inactive: [12] 100 % of control | [13] 95 % of control

COc1ccc2c(c1Oc1ccc([N+](=O)[O-])cc1[N+](=O)[O-])C13CCN(C)C(C2)C1CCC1(C3)OCCO1 (configuration not stated)
inactive: dose: 12.5 mg/kg/injection, schedule: Q01DX009 (ip), vehicle: Klucel (hydroxypropylcellulose) (HPC) 98 % of control | dose: 25.0 mg/kg/injection, schedule: Q01DX009 (ip), vehicle: Klucel (hydroxypropylcellulose) (HPC) 121 % of control | dose: 50.0 mg/kg/injection, schedule: Q01DX009 (ip), vehicle: Klucel (hydroxypropylcellulose) (HPC) 101 % of control | [16] 102 % of control | [17] 102 % of control | [18] 88 % of control

COC(=O)C1C(O)C(C)C(=O)C(C)/C=C\C=C(C)C(=O)Nc2c(C)c(OC(C)=O)c3c(c2O)C(=O)C(C)=C2OCOC(=C23)C(C)=CC(C)(O)C(O)C(C)C1O (configuration not stated)
inactive: dose: 25.0 mg/kg/injection, schedule: Q01DX009 (ip), vehicle: saline 96 % of control | dose: 50.0 mg/kg/injection, schedule: Q01DX009 (ip), vehicle: saline 98 % of control | [7] 96 % of control | [9] 98 % of control

[O]=[Hf]=[O]
inactive: [8] 96 % of control | [10] 92 % of control | [11] 97 % of control
